# Experimental data from patent US6608027B1, “Macrocyclic peptides active against the hepatitis C virus” (Boehringer Ingelheim (Canada) Ltd, priority 1999, dated 2003).
# Target: T1, NS3 protease (Hepatitis C virus genotype 1b, UniProt P26663)
# T1 construct: expressed in transfected cells; host or cells: Huh-7 human hepatoma cells, transient co-transfection (CMV promoter)
# Assay: NS3 protease cell-based assay (SEAP reporter, Huh-7 cells)
# Set-up: species or system HCV
# Conditions: SEAP activity, 24-hour incubation, read-out: cell. act. (EC50 code)
# Text: This assay is done with Huh-7 cells, a human cell line derived from a hepatoma, co-transfected with 2 DNA constructs: one (called NS3) expressing part of the HCV non-structural polyprotein fused to the tTA protein through an NS5A-NS5B cleavage site in the following order: NS3-NS4A-NS4B-NS5A-(NS5B)tTA where (NS5B) represents the 6 first amino acids of NS5
# B. This polyprotein is expressed under the control of the CMV promoter, the other (called SEAP) expressing the reporter protein, secreted alkaline phosphatase (SEAP), under the regulation of a tTA-responsive promoter. The first construct leads to the expression of a polyprotein from which the different mature proteins are released through cleavage by the NS3 protease. It is believed that the mature viral proteins forms a complex at the membrane of the endoplasmic reticulum. tTA is a fusion protein, described by Gossen and Bujard (Proc. Natl. Acad. Sci. USA 89 (1992): 5547-5551), which contains a DNA-binding domain and a transcriptional activator. Release of the tTA protein requires an NS3-dependent cleavage at the NS5A-NS5B cleavage site between NS5A and itself. This last cleavage allows tTA to migrate to the nucleus and transactivate the SEAP gene. Therefore, reduction of NS3 proteolytic activity leads to confinement of tTA to the cytoplasm and concomitant decrease in SEAP activity.
# To control for cellular activities other than inhibition of NS3 protease which are due to the compound, a parallel co-transfection is done with a construct expressing tTA alone and the same reporter construct such that SEAP activity is independent of the NS3 protease.
# Protocol of the assay: Huh-7 cells, grown in CHO-SFMII (Life Technologies)+10% FCS (fetal calf serum) were co-transfected with the two DNA constructs in the following proportions: 7 μg NS3+500 ng SEAP+[…] FuGENE (Boehringer Mannheim) per 4×10^6 Huh-7 cells. After 5 hours at 37° C., the cells were washed, trypsinized and plated (at 80 000 cells/well) in 96-well plates containing a range of concentrations of the compounds to be tested. After a 24-hour incubation period, the SEAP activity in the medium was measured with the Phospha-Light kit (Tropix).
# Analysis of the percent inhibition of SEAP activity with respect to compound concentration was performed with the SAS software to obtain the EC50.
# T1 sequence (P26663 1658-1711): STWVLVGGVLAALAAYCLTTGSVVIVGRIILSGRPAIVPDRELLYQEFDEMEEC
# T1 sequence (P26663 1027-1657): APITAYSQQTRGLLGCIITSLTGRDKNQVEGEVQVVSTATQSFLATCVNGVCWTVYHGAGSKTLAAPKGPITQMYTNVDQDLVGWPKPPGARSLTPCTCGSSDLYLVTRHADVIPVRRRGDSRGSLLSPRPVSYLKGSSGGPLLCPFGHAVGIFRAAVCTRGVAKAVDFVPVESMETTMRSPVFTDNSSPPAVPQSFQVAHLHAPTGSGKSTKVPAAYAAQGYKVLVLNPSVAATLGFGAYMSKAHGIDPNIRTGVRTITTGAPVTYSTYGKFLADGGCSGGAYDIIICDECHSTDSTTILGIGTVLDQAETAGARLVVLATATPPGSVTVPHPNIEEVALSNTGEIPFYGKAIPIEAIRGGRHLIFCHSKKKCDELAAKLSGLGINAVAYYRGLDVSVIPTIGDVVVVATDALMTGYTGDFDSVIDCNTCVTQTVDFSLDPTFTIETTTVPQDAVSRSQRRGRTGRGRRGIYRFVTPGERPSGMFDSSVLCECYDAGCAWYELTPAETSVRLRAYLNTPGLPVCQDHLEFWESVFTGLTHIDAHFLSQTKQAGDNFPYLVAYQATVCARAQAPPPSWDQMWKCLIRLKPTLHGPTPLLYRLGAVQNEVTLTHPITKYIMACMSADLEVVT
row,SMILES,EC50
1,COc1ccc2c(O[C@@H]3C[C@H]4C(=O)N[C@]5(C(=O)O)C[C@H]5/C=C\CCCCC[C@H](NC(=O)OC(C)(C)C)C(=O)N4C3)cc(-c3csc(NC(C)=O)n3)nc2c1 [Compound 702],≤ 1 µM
2,COc1ccc2c(O[C@@H]3C[C@H]4C(=O)N[C@]5(C(=O)O)CC5/C=C\CCCCC[C@H](NC(=O)OC(C)(C)C)C(=O)N4C3)cc(-n3cc(C)cn3)nc2c1 (stereo partly shown) [Compound 734],≤ 1 µM
3,COc1ccc2c(O[C@@H]3C[C@H]4C(=O)N[C@]5(C(=O)O)C[C@H]5/C=C\CCCCC[C@H](NC(=O)OC(C)(C)C)C(=O)N4C3)cc(C3CCC=CO3)nc2c1 (stereo partly shown) [Compound 732],> 1 µM
4,COc1ccc2c(O[C@@H]3C[C@H]4C(=O)N[C@]5(C(=O)O)CC5/C=C\CCCCC[C@H](NC(=O)OC(C)(C)C)C(=O)N4C3)cc(-c3nc(C)no3)nc2c1 (stereo partly shown) [Compound 717],≤ 1 µM
5,COc1ccc2c(O[C@@H]3C[C@H]4C(=O)N[C@]5(C(=O)O)C[C@H]5/C=C\CCCCC[C@H](NC(=O)OC(C)(C)C)C(=O)N4C3)cc(-c3ccccn3)nc2c1 [Compound 704],≤ 1 µM
6,CCOc1cc(O[C@@H]2C[C@H]3C(=O)N[C@]4(C(=O)O)C[C@H]4/C=C\CCCCC[C@H](NC(=O)OC(C)(C)C)C(=O)N3C2)c2ccc(OC)cc2n1 [Compound 712],≤ 1 µM
7,COc1ccc2c(O[C@@H]3C[C@H]4C(=O)N[C@]5(C(=O)O)C[C@H]5/C=C\CCCCC[C@H](NC(=O)OC(C)(C)C)C(=O)N4C3)cc(-n3cccc3)nc2c1 [Compound 715],≤ 1 µM
8,COc1ccc2c(O[C@@H]3C[C@H]4C(=O)N[C@]5(C(=O)O)C[C@H]5/C=C\CCCCC[C@H](NC(=O)OC(C)(C)C)C(=O)N4C3)cc(-c3csc(NC(C)C)n3)nc2c1 [Compound 741],≤ 1 µM
9,COc1ccc2c(O[C@@H]3C[C@H]4C(=O)N[C@]5(C(=O)O)CC5/C=C\CCCCC[C@H](NC(=O)OC(C)(C)C)C(=O)N4C3)cc(-c3nc(C(C)C)cs3)nc2c1 (stereo partly shown) [Compound 725],≤ 1 µM
10,COc1ccc2c(O[C@@H]3C[C@H]4C(=O)N[C@]5(C(=O)O)CC5/C=C\CCCCC[C@H](NC(=O)OC(C)(C)C)C(=O)N4C3)cc(-n3ccc(C)n3)nc2c1 (stereo partly shown) [Compound 738],≤ 1 µM
11,CCNc1nc(-c2cc(O[C@@H]3C[C@H]4C(=O)N[C@]5(C(=O)O)C[C@H]5/C=C\CCCCC[C@H](NC(=O)OC(C)(C)C)C(=O)N4C3)c3ccc(OC)cc3n2)cs1 [Compound 708],≤ 1 µM
12,COc1ccc2c(O[C@@H]3C[C@H]4C(=O)N[C@]5(C(=O)O)C[C@H]5/C=C\CCCCC[C@H](NC(=O)OC(C)(C)C)C(=O)N4C3)cc(-c3csc(C(C)C)n3)nc2c1 [Compound 707],≤ 1 µM
13,COC(=O)Nc1nc(-c2cc(O[C@@H]3C[C@H]4C(=O)N[C@]5(C(=O)O)C[C@H]5/C=C\CCCCC[C@H](NC(=O)OC(C)(C)C)C(=O)N4C3)c3ccc(OC)cc3n2)cs1 [Compound 736],≤ 1 µM
14,COc1ccc2c(O[C@@H]3C[C@H]4C(=O)N[C@]5(C(=O)O)CC5CCCCCCC[C@H](NC(=O)OC5CCCC5)C(=O)N4C3)cc(-c3csc(N)n3)nc2c1 (stereo partly shown) [Compound 908],≤ 1 µM
15,COc1ccc2c(O[C@@H]3C[C@H]4C(=O)N[C@]5(C(=O)O)CC5CCCCCCC[C@H](NC(=O)OC5CCCC5)C(=O)N4C3)cc(-c3nc(C(C)C)cs3)nc2c1 (stereo partly shown) [Compound 906],≤ 1 µM
16,COc1ccc2c(O[C@@H]3C[C@H]4C(=O)N[C@]5(C(=O)O)C[C@H]5/C=C\CCCCC[C@H](NC(=O)OC(C)(C)C)C(=O)N4C3)cc(-c3csc(NC=O)n3)nc2c1 [Compound 735],≤ 1 µM
17,COc1ccc2c(O[C@@H]3C[C@H]4C(=O)N[C@]5(C(=O)O)CC5/C=C\CCCCC[C@H](NC(=O)OC(C)(C)C)C(=O)N4C3)cc(-c3nnc(C)o3)nc2c1 (stereo partly shown) [Compound 716],> 1 µM
18,CCNc1nc(-c2cc(O[C@@H]3C[C@H]4C(=O)N[C@]5(C(=O)O)CC5/C=C\CCCCC[C@H](NC(=O)OC5CCCC5)C(=O)N4C3)c3ccc(OC)cc3n2)cs1 (stereo partly shown) [Compound 810],≤ 1 µM
19,COc1ccc2c(O[C@@H]3C[C@H]4C(=O)N[C@]5(C(=O)O)CC5/C=C\CCCCC[C@H](NC(=O)OC(C)(C)C)C(=O)N4C3)cc(-n3cccn3)nc2c1 (stereo partly shown) [Compound 733],≤ 1 µM
20,COc1ccc2c(O[C@@H]3C[C@H]4C(=O)N[C@]5(C(=O)O)CC5/C=C\CCCCC[C@H](NC(=O)OC5CCCC5)C(=O)N4C3)cc(-c3csc(NC4CC4)n3)nc2c1 (stereo partly shown) [Compound 825],≤ 1 µM

row,SMILES,EC50
1,COc1ccc2c(O[C@@H]3C[C@H]4C(=O)N[C@]5(C(=O)O)C[C@H]5/C=C\CCCCC[C@H](NC(=O)OC(C)(C)C)C(=O)N4C3)cc(C)nc2c1 [Compound 728],> 1 µM
2,COc1ccc2c(O[C@@H]3C[C@H]4C(=O)N[C@]5(C(=O)O)CC5/C=C\CCCCC[C@H](NC(=O)OC5CCCC5)C(=O)N4C3)cc(-c3csc(NC4CCCCC4)n3)nc2c1 (stereo partly shown) [Compound 828],≤ 1 µM
3,COc1ccc2c(O[C@@H]3C[C@H]4C(=O)N[C@]5(C(=O)O)C[C@H]5/C=C\COCCC[C@H](NC(=O)OC(C)(C)C)C(=O)N4C3)cc(-c3ccccc3)nc2c1 [Compound 701],> 1 µM
4,COc1ccc2c(O[C@@H]3C[C@H]4C(=O)N[C@]5(C(=O)O)CC5/C=C\CCCCC[C@H](NC(=O)OC(C)(C)C)C(=O)N4C3)cc(-c3nccn3C)nc2c1 (stereo partly shown) [Compound 726],≤ 1 µM
5,CCNc1nc(-c2cc(O[C@@H]3C[C@H]4C(=O)N[C@]5(C(=O)O)CC5CCCCCCC[C@H](NC(=O)OC5CCCC5)C(=O)N4C3)c3ccc(OC)cc3n2)cs1 (stereo partly shown) [Compound 910],≤ 1 µM
6,COc1ccc2c(O[C@@H]3C[C@H]4C(=O)N[C@]5(C(=O)O)CC5/C=C\CCCCC[C@H](NC(=O)OC(C)(C)C)C(=O)N4C3)cc(-n3ccnc3)nc2c1 (stereo partly shown) [Compound 718],≤ 1 µM
7,CNc1nc(-c2cc(O[C@@H]3C[C@H]4C(=O)N[C@]5(C(=O)O)C[C@H]5/C=C\CCCCC[C@H](NC(=O)OC(C)(C)C)C(=O)N4C3)c3ccc(OC)cc3n2)cs1 [Compound 729],≤ 1 µM
8,CNc1nc(-c2cc(O[C@@H]3C[C@H]4C(=O)N[C@]5(C(=O)O)CC5/C=C\CCCCC[C@H](NC(=O)OC5CCCC5)C(=O)N4C3)c3ccc(OC)cc3n2)cs1 (stereo partly shown) [Compound 811],≤ 1 µM
9,COCc1cc(O[C@@H]2C[C@H]3C(=O)N[C@]4(C(=O)O)C[C@H]4/C=C\CCCCC[C@H](NC(=O)OC(C)(C)C)C(=O)N3C2)c2ccc(OC)cc2n1 [Compound 727],> 1 µM
10,COc1ccc2c(O[C@@H]3C[C@H]4C(=O)N[C@]5(C(=O)O)CC5/C=C\CCCCC[C@H](NC(=O)OC5CCCC5)C(=O)N4C3)cc(-c3csc(NC4CCCC4)n3)nc2c1 (stereo partly shown) [Compound 827],≤ 1 µM
11,COc1ccc2c(O[C@@H]3C[C@H]4C(=O)N[C@]5(C(=O)O)C[C@H]5/C=C\CCCCC[C@H](NC(=O)OC(C)(C)C)C(=O)N4C3)cc(-c3cccc(C)n3)nc2c1 [Compound 719],≤ 1 µM
12,COC(=O)Nc1nc(-c2cc(O[C@@H]3C[C@H]4C(=O)N[C@]5(C(=O)O)CC5/C=C\CCCCC[C@H](NC(=O)OC5CCCC5)C(=O)N4C3)c3ccc(OC)cc3n2)cs1 (stereo partly shown) [Compound 818],≤ 1 µM
13,COc1ccc2c(O[C@@H]3C[C@H]4C(=O)N[C@]5(C(=O)O)C[C@H]5/C=C\CCCCC[C@H](NC(=O)OC(C)(C)C)C(=O)N4C3)cc(-c3nccs3)nc2c1 [Compound 705],≤ 1 µM
14,COc1ccc2c(O[C@@H]3C[C@H]4C(=O)N[C@]5(C(=O)O)CC5/C=C\CCCCC[C@H](NC(=O)OC5CCCC5)C(=O)N4C3)cc(-c3csc(NC(C)C)n3)nc2c1 (stereo partly shown) [Compound 822],≤ 1 µM
15,COc1ccc2c(O[C@@H]3C[C@H]4C(=O)N[C@]5(C(=O)O)CC5/C=C\CCCCC[C@H](NC(=O)OC5CCCC5)C(=O)N4C3)cc(-c3csc(NC4CCC4)n3)nc2c1 (stereo partly shown) [Compound 826],≤ 1 µM
16,COc1ccc2c(O[C@@H]3C[C@H]4C(=O)N[C@]5(C(=O)O)CC5/C=C\CCCCC[C@H](NC(=O)OC5CCCC5)C(=O)N4C3)cc(-c3csc(NC(=O)OCC(C)C)n3)nc2c1 (stereo partly shown) [Compound 819],≤ 1 µM
17,COc1ccc2c(O[C@@H]3C[C@H]4C(=O)N[C@]5(C(=O)O)CC5CCCCCCC[C@H](NC(=O)OC5CCCC5)C(=O)N4C3)cc(-c3csc(NC(C)C)n3)nc2c1 (stereo partly shown) [Compound 911],≤ 1 µM
18,COc1ccc2c(O[C@@H]3C[C@H]4C(=O)N[C@]5(C(=O)O)CC5/C=C\CCCCC[C@H](NC(=O)OC(C)(C)C)C(=O)N4C3)cc(-n3cnc(C)c3)nc2c1 (stereo partly shown) [Compound 722],≤ 1 µM
19,COc1ccc2c(O[C@@H]3C[C@H]4C(=O)N[C@]5(C(=O)O)C[C@H]5/C=C\CCCCC[C@H](NC(=O)OC(C)(C)C)C(=O)N4C3)cc(-c3csc(N)n3)nc2c1 [Compound 731],≤ 1 µM
20,COc1ccc(-c2cc(O[C@@H]3C[C@H]4C(=O)N[C@]5(C(=O)O)C[C@H]5/C=C\CCCCC[C@H](NC(=O)OC(C)(C)C)C(=O)N4C3)c3ccc(OC)cc3n2)nc1 [Compound 737],≤ 1 µM
